# pIC50: −log10 of the molar value.
# System: 233499-124-R-J3-PDC complex spheroid growth
# Assay: Anticancer human tumor 233499-124-R-J3-PDC patient-derived colon adenocarcinoma cell line growth inhibition [AhR]
# Conditions: for pIC50: curve of first compound; for viability, T/C: stronger effect = lower value
# Method in brief: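 Agents were dosed in half-log steps down from roughly clinical Cmax, or from 10 microM where Cmax was unknown, alone and with AhR antagonists. Read-out: percent test/control growth of tumor spheroids containing HUVEC and MSC stromal cells.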
# [1] = second compound 0.1 µM, first compound 0.0316 µM
# [2] = second compound 0.1 µM, first compound 0.1 µM
# [3] = second compound 0.1 µM, first compound 0.316 µM
# [4] = second compound 0.1 µM, first compound 1 µM
# [5] = second compound 0.1 µM, first compound 3.16 µM
# [6] = second compound 0.1 µM, first compound 10 µM
# [7] = second compound 0.316 µM, first compound 0.0316 µM
# [8] = second compound 0.316 µM, first compound 0.1 µM
# [9] = second compound 0.316 µM, first compound 0.316 µM
# [10] = second compound 0.316 µM, first compound 1 µM
# [11] = second compound 0.316 µM, first compound 3.16 µM
# [12] = second compound 0.316 µM, first compound 10 µM
# [13] = second compound 1 µM, first compound 0.0316 µM
# [14] = second compound 1 µM, first compound 0.1 µM
# [15] = second compound 1 µM, first compound 0.316 µM
# [16] = second compound 1 µM, first compound 1 µM
# [17] = second compound 1 µM, first compound 3.16 µM
# [18] = second compound 1 µM, first compound 10 µM
# [19] = second compound 3.16 µM, first compound 0.0316 µM
# [20] = second compound 3.16 µM, first compound 0.1 µM
# [21] = second compound 3.16 µM, first compound 0.316 µM
# [22] = second compound 3.16 µM, first compound 1 µM
# [23] = second compound 3.16 µM, first compound 3.16 µM
# [24] = second compound 3.16 µM, first compound 10 µM
# [25] = second compound 10 µM, first compound 0.0316 µM
# [26] = second compound 10 µM, first compound 0.1 µM
# [27] = second compound 10 µM, first compound 0.316 µM
# [28] = second compound 10 µM, first compound 1 µM
# [29] = second compound 10 µM, first compound 3.16 µM
# [30] = second compound 10 µM, first compound 10 µM
# 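Also: spheroids exposed to agents for seven days before reading.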
structure (smiles),measurement,setting,value
COc1cc(Nc2ncc3c(n2)-c2ccc(Cl)cc2C(c2c(F)cccc2OC)=NC3)ccc1C(=O)O + Cc1ccccc1N=Nc1ccc(NC(=O)c2ccnn2C)c(C)c1,pIC50,second compound 0.1 µM,< 5.00
same,pIC50,second compound 0.316 µM,< 5.00
same,pIC50,second compound 1 µM,< 5.00
same,pIC50,second compound 3.16 µM,< 5.00
same,pIC50,second compound 10 µM,< 5.00
same,"viability, T/C",[1],92.5%
same,"viability, T/C",[2],81.9%
same,"viability, T/C",[3],96.3%
same,"viability, T/C",[4],98.5%
same,"viability, T/C",[5],86.5%
same,"viability, T/C",[6],96.7%
same,"viability, T/C",[7],83.1%
same,"viability, T/C",[8],77.5%
same,"viability, T/C",[9],96.4%
same,"viability, T/C",[10],93.1%
same,"viability, T/C",[11],96.6%
same,"viability, T/C",[12],84.2%
same,"viability, T/C",[13],89%
same,"viability, T/C",[14],93.2%
same,"viability, T/C",[15],90.4%
same,"viability, T/C",[16],87.2%
same,"viability, T/C",[17],97.5%
same,"viability, T/C",[18],92.1%
same,"viability, T/C",[19],91.5%
same,"viability, T/C",[20],80.4%
same,"viability, T/C",[21],102%
same,"viability, T/C",[22],105%
same,"viability, T/C",[23],85.2%
same,"viability, T/C",[24],100%
same,"viability, T/C",[25],109%
same,"viability, T/C",[26],101%
same,"viability, T/C",[27],102%
same,"viability, T/C",[28],101%
same,"viability, T/C",[29],116%
same,"viability, T/C",[30],115%
COc1ccc([C@@H](O)c2cc(-c3ncnc4cc(N5CCOCC5)ccc34)c(F)cc2Cl)nn1 + Cc1ccccc1N=Nc1ccc(NC(=O)c2ccnn2C)c(C)c1,pIC50,second compound 0.1 µM,< 5.00
same,pIC50,second compound 0.316 µM,< 5.00
same,pIC50,second compound 1 µM,< 5.00
same,pIC50,second compound 3.16 µM,< 5.00
same,pIC50,second compound 10 µM,< 5.00
same,"viability, T/C",[1],90.3%
same,"viability, T/C",[2],98.9%
same,"viability, T/C",[3],96.8%
same,"viability, T/C",[4],104%
same,"viability, T/C",[5],101%
same,"viability, T/C",[6],89.2%
same,"viability, T/C",[7],97.3%
same,"viability, T/C",[8],101%
same,"viability, T/C",[9],86.3%
same,"viability, T/C",[10],102%
same,"viability, T/C",[11],92%
same,"viability, T/C",[12],63.6%
same,"viability, T/C",[13],104%
same,"viability, T/C",[14],98.4%
same,"viability, T/C",[15],102%
same,"viability, T/C",[16],95.7%
same,"viability, T/C",[17],85.5%
same,"viability, T/C",[18],90.2%
same,"viability, T/C",[19],99.5%
same,"viability, T/C",[20],101%
same,"viability, T/C",[21],93.5%
same,"viability, T/C",[22],97.8%
same,"viability, T/C",[23],92.2%
same,"viability, T/C",[24],76.3%
same,"viability, T/C",[25],90.5%
same,"viability, T/C",[26],90.3%
same,"viability, T/C",[27],85.6%
same,"viability, T/C",[28],94.6%
same,"viability, T/C",[29],91.4%
same,"viability, T/C",[30],60.6%
Cn1ncnc1C1c2n[nH]c(=O)c3cc(F)cc(c23)NC1c1ccc(F)cc1 (stereo not given) + Cc1cncc(-c2nc(NCCc3c[nH]c4ccccc34)c3ncn(C(C)C)c3n2)c1,pIC50,second compound 0.1 µM,< 7.00
same,pIC50,second compound 0.316 µM,< 7.00
same,pIC50,second compound 1 µM,< 7.00
same,pIC50,second compound 3.16 µM,< 7.00
same,pIC50,second compound 10 µM,> 9.50
same,"viability, T/C","second compound 0.1 µM, first compound 0.000316 µM",93.4%
same,"viability, T/C","second compound 0.1 µM, first compound 0.001 µM",97.3%
same,"viability, T/C","second compound 0.1 µM, first compound 0.00316 µM",109%
same,"viability, T/C","second compound 0.1 µM, first compound 0.01 µM",108%
same,"viability, T/C",[1],88.7%
same,"viability, T/C",[2],101%
same,"viability, T/C","second compound 0.316 µM, first compound 0.000316 µM",88.7%
same,"viability, T/C","second compound 0.316 µM, first compound 0.001 µM",81.3%
same,"viability, T/C","second compound 0.316 µM, first compound 0.00316 µM",93.5%
same,"viability, T/C","second compound 0.316 µM, first compound 0.01 µM",87.3%
same,"viability, T/C",[7],78.3%
same,"viability, T/C",[8],96.2%
same,"viability, T/C","second compound 1 µM, first compound 0.000316 µM",79.4%
same,"viability, T/C","second compound 1 µM, first compound 0.001 µM",75.9%
same,"viability, T/C","second compound 1 µM, first compound 0.00316 µM",78.8%
same,"viability, T/C","second compound 1 µM, first compound 0.01 µM",78%
same,"viability, T/C",[13],76.5%
same,"viability, T/C",[14],91.4%
same,"viability, T/C","second compound 3.16 µM, first compound 0.000316 µM",84.4%
same,"viability, T/C","second compound 3.16 µM, first compound 0.001 µM",81.2%
same,"viability, T/C","second compound 3.16 µM, first compound 0.00316 µM",73.2%
same,"viability, T/C","second compound 3.16 µM, first compound 0.01 µM",66.6%
same,"viability, T/C",[19],76.1%
same,"viability, T/C",[20],71.3%
same,"viability, T/C","second compound 10 µM, first compound 0.000316 µM",23.2%
same,"viability, T/C","second compound 10 µM, first compound 0.001 µM",13.3%
same,"viability, T/C","second compound 10 µM, first compound 0.00316 µM",23.2%
same,"viability, T/C","second compound 10 µM, first compound 0.01 µM",26.1%
same,"viability, T/C",[25],14.8%
same,"viability, T/C",[26],18.6%
COc1cccc2c1C(=O)c1c(O)c3c(c(O)c1C2=O)CC(O)(C(=O)CO)CC3OC1CC(N)C(O)C(C)O1 (stereo not given) + Cc1cncc(-c2nc(NCCc3c[nH]c4ccccc34)c3ncn(C(C)C)c3n2)c1,pIC50,second compound 0.1 µM,5.07
same,pIC50,second compound 0.316 µM,< 5.00
same,pIC50,second compound 1 µM,5.56
same,pIC50,second compound 3.16 µM,5.87
same,pIC50,second compound 10 µM,> 7.50
same,"viability, T/C",[1],102%
same,"viability, T/C",[2],84.1%
same,"viability, T/C",[3],80.3%
same,"viability, T/C",[4],83.2%
same,"viability, T/C",[5],49.3%
same,"viability, T/C",[6],51.2%
same,"viability, T/C",[7],73.8%
same,"viability, T/C",[8],90.8%
same,"viability, T/C",[9],79.8%
same,"viability, T/C",[10],78%
same,"viability, T/C",[11],61.3%
same,"viability, T/C",[12],50.6%
same,"viability, T/C",[13],87.4%
same,"viability, T/C",[14],72.8%
same,"viability, T/C",[15],76.9%
same,"viability, T/C",[16],71%
same,"viability, T/C",[17],46.9%
same,"viability, T/C",[18],32.5%
same,"viability, T/C",[19],81.8%
same,"viability, T/C",[20],87.1%
same,"viability, T/C",[21],77.5%
same,"viability, T/C",[22],60.8%
same,"viability, T/C",[23],21.3%
same,"viability, T/C",[24],4.5%
same,"viability, T/C",[25],7.64%
same,"viability, T/C",[26],13.7%
same,"viability, T/C",[27],41%
same,"viability, T/C",[28],13.4%
same,"viability, T/C",[29],14.4%
same,"viability, T/C",[30],0.5%
